Source: paper PMC11855827, “High-Throughput Screening of Five Compound Libraries for Anthelmintic Activity and Toxicity Leads to the Discovery of Two Flavonoid Compounds” (International Journal of Molecular Sciences, 2025)
Several values for one entry are separate records, joined by “and”; a condition that tells them apart may be missing. Equal entries are not always repeated. Where two headings read alike, the source gives them in different places.

Key:
[1] = system: T. circumcincta resistant strain; assay: Egg hatch inhibition (EHI), ovicidal effect; parameters: species or system Teladorsagia circumcincta; settings: for EC50 / inhibition at 100 µM: Teladorsagia circumcincta; for EC50: egg hatching, resistant T. circumcincta, nine replicates, read-out: Ovicidal Effect EC50 (μM) T. c
[2] = Spheroids toxicity assay (alamarBlue); assay type: cell-based; settings: human
Method: HepG2 cells were cultured as a monolayer under standard conditions, using DMEM/F12 medium supplemented with L-glutamine and 15 mM HEPES buffer (pH 7.2) supplemented with 10% fetal bovine serum (FBS) and antibiotic mixture (100 U/mL penicillin and 100 µg/mL streptomycin) at 37 °C and 5% CO2, according to previous published protocols.
Cells were detached from the culture flask using 0.25% trypsin solution and then centrifuged at 500× g for 6.5 min. After centrifugation, the supernatant was discarded, and the pellet was resuspended in culture medium. Cells were passed gently through a G27 needle several times and then counted. Cells were dispensed into a tissue treated Nunclon™ Sphera™ 96-well U-bottom plate (Thermo Scientific™, Waltham, MA, USA, 174925) in a final volume of 50 µL to a total of 2500 cells/well. In addition, another 50 µL of medium supplemented with Rat Tail Collagen I (Gibco™, Thermo Scientific™, Waltham, MA, USA, A1048301) was dispensed, to achieve a final concentration in a plate of 3 µg/mL for each well. The plate was centrifuged at 500× g for 1 min.
On Day 4, 100 µL of a serial dilution of the testing compounds were added to each well. For controls, 0.03% H2O2 (v/v) as positive control and 0.2% DMSO (v/v) as negative control were used.
To determine the viability of the spheroids to the testing compounds, a 20% of alamarBlue™ HS reagent (Invitrogen™, Thermo Fisher Scientific™, Waltham, MA, USA) was added on Day 7 and the results were read 24 h later using a Varioskan™ LUX (Thermo Scientific, USA, Instrument software ver. 1.00.37, Skanlt software ver. 5.0.0.42). All assays were conducted in duplicate across at least three independent experiments.

[3] = Mouse intestinal organoids' tolerance assay (alamarBlue); settings: C57BL/6, mouse
C. elegans [4] = settings: cited from earlier work
C. elegans [5] = system: C. elegans
[6] = system: T. circumcincta resistant strain; assay: Larval migration inhibition test (LMIT); parameters: species or system Teladorsagia circumcincta; settings: resistant strain, L3, 100 μM, NE = Not Effective at 100 μM, control ivermectin 8.75 µg/mL
Description: (§1) Eggs and third instar larvae (L3) of H. contortus from a field strain and a resistant strain of T. circumcincta were used in the current trials. These parasitic forms were obtained from fresh feces of Merino and Churra sheep experimentally infected at the experimental farm of the Instituto de Ganadería de Montaña (IGM, CSIC, Gruyeros, León, Spain) and purified according to previously described methods. Briefly, eggs were taken from fresh feces, washed, centrifuged and floated with a saturated sodium chloride solution, then concentrated, counted and used in the assays. L3 were obtained by culturing feces at 25 °C for 13 d. L3 larvae were […] in 0.5% sodium hypochlorite solution for 10 min at room temperature and washed to avoid excess salt. After washing, they were concentrated and counted for use.
(§2) The viability of H. contortus larvae was assessed by the larval migration inhibition test (LMIT) according to previously described methods. Briefly, 700 µL aliquots containing 500–600 L3 were prepared for each compound. […] After a 24 h incubation at 28 °C, the compound was removed by three washes, leaving a final volume of 1400 µL. After the washes, three 400 µL aliquots were taken from each tube and transferred to a 96-well plate with a MultiScreen mesh filter. The plates were incubated for a further 24 h at 28 °C to allow the motile L3 to pass through the 20 µm mesh for counting. Then, the number of larvae present in each well was counted to determine percentage of larval migration for each compound: % Larval migration=number of larvae migrating in compound wells/number of larvae migrating in negative control×100
(§3) For the larvae, ivermectin at 8.75 µg/mL and DMSO 0.5% (v/v) were used as controls and at least 12 replicates were performed. […] EC50 were determined by plotting the percentage of viability of the L1 against the concentration of each compound, using the nonlinear fit analysis provided by the SigmaPlot® 10.1.

[7] = system: H. contortus susceptible strain; assay: Larval migration inhibition test (LMIT); parameters: species or system Haemonchus contortus; settings: L3, 100 μM, NE = Not Effective at 100 μM, control ivermectin 8.75 µg/mL
Description: as §1, §2, §3

in vitro = settings: C57BL/6, mouse
[8] = system: H. contortus susceptible strain; assay: Egg hatch inhibition (EHI), ovicidal effect; parameters: species or system Haemonchus contortus; settings: Haemonchus contortus; for EC50: egg hatching, susceptible H. contortus, nine replicates, read-out: Ovicidal Effect EC50 (μM) H. c; for inhibition at 100 µM: susceptible strain, NE = Not Effective at 100 μM, control thiabendazole 0.1 µg/mL
C. elegans [9] = assay: C. elegans motility dose-response (DR) assay; parameters: species or system Caenorhabditis elegans
C. elegans [10] = assay: microbe, parasite or virus in culture; settings: Caenorhabditis elegans
[11] = human poisoning case; cited from earlier work
[12] = mice, estimated; cited from earlier work
H. contortus L3-L4 = settings: read-out: IC50 against H. contortus L3-L4; cited from earlier work
[13] = Globally Harmonized System (GHS) / ECHA; cited from earlier work
[14] = resistant strain, 100 μM, NE = Not Effective at 100 μM, control thiabendazole 0.1 µg/mL
[15] = read-out: EC50 (μM) at 24 h, C. elegans motility, DR assay
[16] = 0 h, read-out: Inhibition (%) 110 μM (0 h), C. elegans L4 motility, 110 μM, 0 h, mean ± SD of four experiments
[17] = 24 h, read-out: Inhibition (%) 110 μM (24 h), C. elegans L4 motility, 110 μM, 24 h, mean ± SD of four experiments
[18] = read-out: EC50 found in the literature

With `O=C(/C=C/c1ccccc1)c1ccccc1` [Chalcone] the EC50 [1] was 9.8 ± 0.3 µM, the inhibition at 100 µM [1, 14] was 100% and the CC50 at 3 d ([2]; HepG2 liver spheroids (3D culture), read-out: Citotoxicity CC50 (μM) Sph) was > 90 µM. For the same compound, the selectivity ratio ([2]; pH 7.2, Selective Index (SI) CC50/EC50 Sph/H. c) was > 24.3, the selectivity ratio ([2]; pH 7.2, Selective Index (SI) CC50/EC50 Sph/T. c) was > 9.2 and the CC50 at 3 d [3] was > 50 µM. The EC50 (C. elegans [4]; nematocidal, read-out: EC50 against C. elegans) was 52 ± 9 µM, the “Percentage of motility inhibition 24 h” value (C. elegans [5]; 24 h, 110 µM) was 86% and the inhibition at 100 µM ([6]; Teladorsagia circumcincta, 24 h, read-out: T. circumcincta LMIT (%)) was 4.7 ± 1.5%. For the same compound, the “H. contortus LMIT (%)” value [7] was 45.7 ± 4.5%, the selectivity ratio (in vitro; Selective Index (SI) CC50/EC50 Ent/H. c) was > 13.5 and the selectivity ratio (in vitro; Selective Index (SI) CC50/EC50 Ent/T. c) was > 5.1. The EC50 [8] was 3.7 ± 0.1 µM, the inhibition at 100 µM [8] was 99.4 ± 0.1% and the EC50 (C. elegans [9]; [15]) was 52.4 ± 1.4 µM. The inhibition at 110 µM (C. elegans [10]; [16]) was 30 ± 30% and the inhibition at 110 µM (C. elegans [10]; [17]) was 85 ± 15%.

Work on `c1ccc2[nH]c(-c3cscn3)nc2c1` [Thiabendazole, reference compound] yielded an EC50 [1] of 1.53 ± 0.06 µM, an inhibition at 100 µM [1, 14] of 100% and an EC50 [8] of 0.28 ± 0.01 µM. The inhibition at 100 µM [8] was 100%.

For `CCOc1ccc2nc3cc(N)ccc3c(N)c2c1` [Ethacridine lactate, reference compound], the “T. circumcincta EHI (%)” value [1, 14] was 4.0 ± 1.5%, the “H. contortus LMIT (%)” value [7] was 4.9 ± 2.2% and the inhibition at 100 µM [8] was 55.8 ± 5.1%. For the same compound, the EC50 (C. elegans [9]; Caenorhabditis elegans, 24 h, read-out: EC50 (μM) at 24 h, C. elegans motility, DR assay, 24 h) was 50.1 ± 1 µM, the inhibition at 110 µM (C. elegans [10]; [16]) was 66 ± 26% and the inhibition at 110 µM (C. elegans [10]; [17]) was 87 ± 6%.

For `CCc1nn(C)c(C(=O)NCc2ccc(Oc3ccc(C)cc3)cc2)c1Cl` [Tolfenpyrad], the EC50 [1] is listed as 0.2 ± 0.3 µM, the inhibition at 100 µM [1, 14] is listed as 99.7 ± 0.5% and the “Plasma concentration in a poisoning case” value [11] is listed as 1.97 µg/mL and 5.08 µM. The selectivity ratio ([2]; pH 7.2, CC50 HepG2 spheroids / EC50 H. contortus, read-out: Selective Index (SI) CC50/EC50 Sph/H. c) was > 33.3, the selectivity ratio ([2]; pH 7.2, CC50 HepG2 spheroids / EC50 T. circumcincta, read-out: Selective Index (SI) CC50/EC50 Sph/T. c) was 250 and the CC50 ([2]; HepG2 liver spheroids, read-out: Citotoxicity CC50 (μM) Sph) was > 50 µM. The “Maximum tolerated dose (MTD)” value [12] was 1 mg/kg, the EC50 (C. elegans [4]; [18]) was 3.6 µM and the inhibition at 100 µM ([7]; Haemonchus contortus, 24 h) was 9 ± 6.3%. For the same compound, the CC50 (in vitro) was < 1 µM, the selectivity ratio (in vitro; Selective Index (SI) CC50/EC50 Ent/H. c, CC50 mouse enteroid / EC50 H. contortus) was < 0.7 and the selectivity ratio (in vitro; Selective Index (SI) CC50/EC50 Ent/T. c, CC50 mouse enteroid / EC50 T. circumcincta) was < 5. The IC50 (H. contortus L3-L4) was 0.02 to 3 µM, the EC50 [8] was 1.5 ± 0.1 µM and the inhibition at 100 µM [8] was 96 ± 2.9%. The GHS classification [13] was “category 4: acute toxicity”, the EC50 (C. elegans [9]; Caenorhabditis elegans, read-out: EC50 (μM) at 24 h, C. elegans motility, DR assay) was 2.4 ± 0.2 µM and the inhibition at 110 µM (C. elegans [10]; 0 h, read-out: Inhibition (%) 110 μM (0 h)) was 80 ± 2%. It also gave an inhibition at 110 µM (C. elegans [10]; 24 h, read-out: Inhibition (%) 110 μM (24 h)) of 98 ± 2%.

For Ivermectin [reference compound], the EC50 (C. elegans [4]; [18]) is given as 0.19 µM, the “Inhibition (%) 110 μM (0 h)” value (C. elegans [5]) is given as 98 ± 1% and the “Inhibition (%) 110 μM (24 h)” value (C. elegans [5]) is given as 85 ± 14%. For the same compound, the “T. circumcincta LMIT (%)” value [6] was 100.0 ± 0.0%, the “H. contortus LMIT (%)” value [7] was 100.0 ± 0.0% and the EC50 (C. elegans [9]; [15]) was 2.18 µM.
